Numbers after ± are expanded uncertainties.

The data set can be described thus: refractive index (Na D-line) (dimensionless). To be noted: 303.15 K; 101.33 kPa; Liquid; Standard Abbe refractometry.
By refractive index is commonly meant a measure of how strongly the sample bends light. With `O=S1(=O)CCCC1` [sulfolane], the refractive index amounted to 1.4815 ± 0.018.

As for `CCCCCCC` [heptane], the refractive index is given as 1.3844 ± 0.018.

For `CC(C)C(=O)O` [2-methylpropanoic acid], the refractive index stood at 1.3913 ± 0.018.

For the origin of these results see the NIST ThermoML archive (doi:10.1016/j.jct.2015.12.019).
